According to patent US9145415B2, “Nitrogen-containing heterocyclic compound or salt thereof” (FUJIFILM Corporation, priority 2012, dated 2015):
Like-named read-outs stand apart in the source and are kept apart here.

What was measured:
[1] = molecular target: T1, human FLT3 protein (FLT3 (WT)) (Homo sapiens, UniProt P36888); experiment: FLT3 inhibition test (FLT3 enzyme inhibition, time-resolved fluorescence of substrate peptide phosphorylation); type: biochemical; settings: read-out: FLT3 (WT) enzyme inhibition activity
T1 construct: human FLT3 protein (intracellular region, 564 to 993 aa); GST; purchased Carna Biosciences; host or cells: baculovirus expression system
T1 sequence (P36888 564-993): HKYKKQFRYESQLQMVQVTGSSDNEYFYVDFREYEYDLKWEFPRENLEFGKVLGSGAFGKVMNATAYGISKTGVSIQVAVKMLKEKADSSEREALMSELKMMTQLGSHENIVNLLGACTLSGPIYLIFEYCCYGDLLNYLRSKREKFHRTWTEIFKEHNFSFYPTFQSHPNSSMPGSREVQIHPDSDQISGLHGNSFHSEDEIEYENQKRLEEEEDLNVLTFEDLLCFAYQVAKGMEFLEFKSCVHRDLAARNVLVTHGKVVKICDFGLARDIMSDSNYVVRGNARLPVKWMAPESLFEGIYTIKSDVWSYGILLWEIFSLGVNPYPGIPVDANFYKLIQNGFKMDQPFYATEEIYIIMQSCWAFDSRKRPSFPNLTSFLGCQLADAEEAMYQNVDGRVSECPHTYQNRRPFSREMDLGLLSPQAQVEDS
Summary of the method: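 Substrate peptide phosphorylation detected by time-resolved fluorescence after a 30 min kinase reaction at 25° C with 50 μM ATP (final). Beforehand, compound and FLT3 (WT, 1.2 μg) stood 15 min at 25° C in HEPES buffer pH 7.5 containing MgCl2, NaCl, BSA and DTT.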

MV4-11 cells = experiment: Leukemia cell proliferation inhibition test (ATPlite), MV4-11; type: cell-based; settings: Homo sapiens, read-out: MV4-11 cell proliferation inhibition effect
Summary of the method: (§1)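 Molm-13 or MV4-11 cells in RPMI with 10% FBS and pen/strep, seeded at 10,000 cells per well, were exposed to serially diluted compound for 72 hours at 37° C, 5% CO2. Total cellular ATP was read by luciferase luminescence. GI50 came from sigmoid fits against the 0.1% DMSO control, in duplicate.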

Molm-13 cells = experiment: Leukemia cell proliferation inhibition test (ATPlite), Molm-13; type: cell-based; settings: Homo sapiens, read-out: MOLM13 cell proliferation inhibition effect
Summary of the method: as §1

[2] = GST-fused human FLT3 (564 to 993 aa), ATP 50 μM
[3] = MV4-11, 72 h, MV4-11, 72 hours culture, ATPlite, GI50 per method
[4] = MOLM-13, 72 h, Molm-13, 72 hours culture, ATPlite, GI50 per method

IC50 [1, 2]	IC50 (MV4-11 cells; [3])	IC50 (Molm-13 cells; [4])	IC50 ([1]; FLT3 (WT))	IC50 (MV4-11 cells; MV4-11, MV4-11 cell)	IC50 (Molm-13 cells; MOLM-13, MOLM13 cell)	SMILES
< 0.01 µM	< 0.01 µM	< 0.01 µM	–	–	–	CCCNc1nc(Nc2ccc3nn(C)cc3c2)ncc1C#CCCCNC(=O)[C@H](C)N(C)C(=O)/C=C/CN(C)C [Compound 21-7]
< 0.01 µM	< 0.01 µM	< 0.01 µM	–	–	–	COc1ccc(Nc2nc(Nc3ccc(F)cc3)ncc2C#CCCCNC(=O)CN(C)C(=O)/C=C/CN(C)C)cn1 [Compound 10-20]
–	–	–	< 0.01 µM	< 0.01 µM	< 0.01 µM	CCCNc1nc(Nc2cnc3c(c2)c(C)nn3CCOC)ncc1C#CCCCNC(=O)[C@H](C)N(C)C(=O)/C=C/CN(C)C [Compound 22-41]
–	–	–	< 0.01 µM	< 0.01 µM	< 0.01 µM	CCCNc1nc(Nc2ccc3c(F)nn(C)c3c2)ncc1C#CCCCNC(=O)[C@H](C)N(C)C(=O)/C=C/CN(C)C [Compound 22-58]
< 0.01 µM	0.01 to 0.1 µM	0.01 to 0.1 µM	–	–	–	CCCNc1nc(Nc2ccc3cn(C)nc3c2)ncc1C#CCCCNC(=O)[C@H](C)N(C)C(=O)/C=C/CN(C)C [Compound 21-10]
< 0.01 µM	< 0.01 µM	< 0.01 µM	–	–	–	CCCNc1nc(Nc2ccc(C#N)cc2)ncc1C#CCCCNC(=O)[C@@H]1C[C@H](F)CN1C(=O)/C=C/CN(C)C [Compound 7-50]
< 0.01 µM	< 0.01 µM	< 0.01 µM	–	–	–	CC[C@@H](C(=O)NCCCC#Cc1cnc(Nc2ccc(F)nc2)nc1Nc1cccc(F)c1)N(C)C(=O)/C=C/CN(C)C [Compound 10-32]
0.01 to 0.1 µM	> 1 µM	> 1 µM	–	–	–	C=CC(=O)NCC(=O)NCCNC(=O)c1cnc(NCCc2ccncc2)nc1NCCC [Compound 2-18]
–	–	–	< 0.01 µM	< 0.01 µM	< 0.01 µM	COCCNc1nc(Nc2cccc(F)c2)ncc1C#C[C@@H]1CCC[C@H](NC(=O)[C@H](C)N(C)C(=O)/C=C/CN(C)C)C1 [Compound 22-36]
–	–	–	< 0.01 µM	< 0.01 µM	< 0.01 µM	CCCNc1nc(Nc2cnc3c(cnn3C)c2)ncc1C#CCCCNC(=O)[C@@H]1CCCN1C(=O)/C=C/CN(C)C [Compound 22-43, (S,E)-1-(4-(Dimethylamino)-2-butenoyl)-N-(5-(2-((1-methyl-1H-pyrazolo[3,4-b]pyridin-5-yl)amino)-4-(propylamino)pyrimidin-5-yl)-4-pentyn-1-yl)pyrrolidine-2-carboxamide]
< 0.01 µM	0.01 to 0.1 µM	0.01 to 0.1 µM	–	–	–	CCCNc1nc(Nc2ccc(C(N)=O)cc2)ncc1C(=O)NC1CCCC(NC(=O)CNC(=O)/C=C/CN(C)C)C1 (stereo not drawn) [Compound 3-3]
< 0.01 µM	< 0.01 µM	< 0.01 µM	–	–	–	CNc1nc(Nc2ccc3cn[nH]c3c2)ncc1C#CCCCNC(=O)[C@@H]1CCCN1C(=O)/C=C/CN(C)C [Compound 10-69]
< 0.01 µM	< 0.01 µM	< 0.01 µM	–	–	–	CCCNc1nc(Nc2cccc(F)c2)ncc1C#C[C@@H]1CC[C@H](NC(=O)[C@H](C)N(C)C(=O)/C=C/CN(C)C)C1 [Compound 13-10]
< 0.01 µM	< 0.01 µM	< 0.01 µM	–	–	–	CCCN(C)c1nc(NCCc2ccncc2)ncc1C#Cc1cccc(NC(=O)[C@H](C)N(C)C(=O)/C=C/CN(C)C)c1 [Compound 12-14, (S,E)-4-(dimethylamino)-N-methyl-N-(1-((3-((4-(methyl(propyl)amino)-2-((2-(pyridin-4-yl)ethyl)amino)pyrimidin-5-yl)ethynyl)phenyl)amino)-1-oxopropan-2-yl)-2-butenamide]
< 0.01 µM	< 0.01 µM	0.01 to 0.1 µM	–	–	–	CCCNc1nc(Nc2ccc(C#N)cc2)ncc1C(=O)Nc1cccc(NC(=O)[C@H](C)N(C)C(=O)/C=C/CN(C)C)c1 [Compound 6-1, (S,E)-2-((4-cyanophenyl)amino)-N-(3-(2-(4-(dimethylamino)-N-methyl-2-butenamido)propanamido)phenyl)-4-(propylamino)pyrimidine-5-carboxamide]
–	–	–	< 0.01 µM	0.01 to 0.1 µM	0.01 to 0.1 µM	CCCNc1nc(Nc2cncc(Cl)c2)ncc1C#CCCCNC(=O)[C@H](C)N(C)C(=O)/C=C/CN(C)C [Compound 22-9]

IC50 [1, 2]	IC50 (MV4-11 cells; [3])	IC50 (Molm-13 cells; [4])	IC50 ([1]; FLT3 (WT))	IC50 (MV4-11 cells; MV4-11, MV4-11 cell)	IC50 (Molm-13 cells; MOLM-13, MOLM13 cell)	SMILES
–	–	–	< 0.01 µM	< 0.01 µM	< 0.01 µM	CCCNc1nc(Nc2cccc(-n3nccn3)c2)ncc1C#CCCCNC(=O)[C@H](C)N(C)C(=O)/C=C/CN(C)C [Compound 22-19]
< 0.01 µM	< 0.01 µM	< 0.01 µM	–	–	–	CNc1nc(Nc2ccc(F)cc2)ncc1C#CCCCNC(=O)[C@@H]1CCN1C(=O)/C=C/CN(C)C [Compound 7-86, (S,E)-1-(4-(Dimethylamino)-2-butenoyl)-N-(5-(2-((4-fluorophenyl)amino)-4-(methylamino)pyrimidin-5-yl)-4-pentyn-1-yl)azetidine-2-carboxamide]
< 0.01 µM	0.01 to 0.1 µM	0.01 to 0.1 µM	–	–	–	CCCNc1nc(Nc2cccc(F)c2)ncc1-c1cc(CCNC(=O)[C@H](C)N(C)C(=O)/C=C/CN(C)C)on1 [Compound 17-3, (S,E)-4-(dimethylamino)-N-(1-((2-(3-(2-((3-fluorophenyl)amino)-4-(propylamino)pyrimidin-5-yl)isoxazol-5-yl)ethyl)amino)-1-oxopropan-2-yl)-N-methyl-2-butenamide]
< 0.01 µM	< 0.01 µM	< 0.01 µM	–	–	–	C[C@@H](C(=O)NCCCC#Cc1cnc(Nc2cccc(F)c2)nc1N1CCOCC1)N(C)C(=O)/C=C/CN(C)C [Compound 10-5, (S,E)-4-(Dimethylamino)-N-(1-((5-(2-((3-fluorophenyl)amino)-4-morpholinopyrimidin-5-yl)-4-pentyn-1-yl)amino)-1-oxopropan-2-yl)-N-methyl-2-butenamide]
< 0.01 µM	< 0.01 µM	< 0.01 µM	–	–	–	COc1nc(Nc2ccc(C#N)cc2)ncc1C#C[C@@H]1CCC[C@H](NC(=O)[C@H](C)N(C)C(=O)/C=C/CN(C)C)C1 [Compound 15-1, (E)-N—((S)-1-(((1S,3R)-3-((2-((4-cyanophenyl)amino)-4-methoxypyrimidin-5-yl)ethynyl)cyclohexyl)amino)-1-oxopropan-2-yl)-4-(dimethylamino)-N-methyl-2-butenamide]
< 0.01 µM	< 0.01 µM	< 0.01 µM	–	–	–	CCNc1nc(Nc2ccc3[nH]ncc3c2)ncc1C#CCCCNC(=O)[C@H](C)N(C)C(=O)/C=C/CN(C)C [Compound 10-61]
< 0.01 µM	0.01 to 0.1 µM	0.01 to 0.1 µM	–	–	–	CCCNc1nc(Nc2ccc(C(N)=O)cc2)ncc1C#CCCCNC1(CNC(=O)/C=C/CN(C)C)CCOCC1 [Compound 8-12]
< 0.01 µM	0.01 to 0.1 µM	0.1 to 1 µM	–	–	–	CCCNc1nc(Nc2ccc(C(N)=O)cc2)ncc1C(=O)Nc1cccc(NC2CCN(C(=O)/C=C/CN(C)C)C2)c1 (stereo not drawn) [Compound 3-20]
< 0.01 µM	0.01 to 0.1 µM	0.1 to 1 µM	–	–	–	C=CC(=O)N(C)CC(=O)NCCCNC(=O)c1cnc(NC(=O)Nc2ccncc2)nc1NCCC [Compound 6-12]
< 0.01 µM	< 0.01 µM	< 0.01 µM	–	–	–	CCCNc1nc(Nc2ccc(C#N)cc2)ncc1C#CCCCNC(=O)CN(C)C(=O)/C=C/CN(C)C [Compound 7-9, (E)-N-(2-((5-(2-((4-Cyanophenyl)amino)-4-(propylamino)pyrimidin-5-yl)-4-pentyn-1-yl)amino)-2-oxoethyl)-4-(dimethylamino)-N-methyl-2-butenamide]
< 0.01 µM	< 0.01 µM	< 0.01 µM	–	–	–	C[C@@H](C(=O)NCCCC#Cc1cnc(Nc2ccc(C#N)cc2)nc1NCC1CC1)N(C)C(=O)/C=C/CN(C)C [Compound 21-12]
0.01 to 0.1 µM	0.01 to 0.1 µM	0.01 to 0.1 µM	–	–	–	CCCNc1nc(Nc2cnc(N3CCOCC3)c(F)c2)ncc1C#CCCCNC(=O)[C@H](C)N(C)C(=O)/C=C/CN(C)C [Compound 21-8]
0.01 to 0.1 µM	0.01 to 0.1 µM	0.01 to 0.1 µM	–	–	–	CCCNc1nc(Nc2nnc(C)s2)ncc1C#CCCCNC(=O)[C@H](C)N(C)C(=O)/C=C/CN(C)C [Compound 9-40]
< 0.01 µM	< 0.01 µM	< 0.01 µM	–	–	–	C[C@@H](C(=O)NCCCC#Cc1cnc(Nc2ccc3c(cnn3C)c2)nc1NC1CC1)N(C)C(=O)/C=C/CN(C)C [Compound 10-54]
< 0.01 µM	< 0.01 µM	0.01 to 0.1 µM	–	–	–	CCCNc1nc(Nc2ccc(C#N)cc2)ncc1C#CCCCNC(=O)[C@H]1CCCN1C(=O)/C=C/CN(C)C [Compound 7-36]
–	–	–	< 0.01 µM	< 0.01 µM	< 0.01 µM	COCCNc1nc(Nc2cccc(C#N)c2)ncc1C#C[C@@H]1CCC[C@H](NC(=O)[C@H](C)N(C)C(=O)/C=C/CN(C)C)C1 [Compound 22-38]
